Patent US8173441B2, “Method for applying NMR for ligand discovery or as a drug screening tool” (Universiteit Leiden, priority 2001, dated 2012)
Entries after “also recorded” stand apart in the source; their conditions may differ.

Legend:
[1] = test system: 26 base synthetic double stranded 5′ biotinylated oligonucleotide (DNA); assay: TINS: 1H-NMR difference spectrum, streptavidin-sepharose resin vs resin with biotinylated oligonucleotide bound; assay type: binding; settings: 1 mM solution in D2O; oligonucleotide on streptavidin-sepharose resin
[2] = target: T1, C-terminal SH2 domain (CSH2) from the 85 kDa, alpha form of the regulatory subunit of bovine phosphoinositide 3′ kinase (Bos taurus, UniProt P23727); assay: Target immobilized NMR screening (TINS): 1H-NMR difference spectrum, control resin vs resin with CSH2 covalently bound; assay type: binding; settings: 1 mM each compound in D2O, d11-Tris pH 7.5, 50 mM NaCl, CSH2 on Actigel ALD resin
T1 construct: the c-terminal SH2 domain of p85alpha was prepared as previously described by Siegal et al; made in house
Description: In this example, it was aimed to investigate whether binding of a small molecule to a target bound to the resin would be detectable in the ^1H spectrum. The test system utilized the C-terminal SH2 domain (CSH2) from the 85 kDa, alpha form of the regulatory subunit of bovine phosphoinositide 3′ kinase. This small (110 residues) protein domain has well characterized binding specificity.
To see whether the method of the present invention provides a mode appropriate for efficient screening of a large library of compounds, CSH2 was immobilized on a chemically activated chromatography resin of Actigel ALD by covalent attachment. Attachment occurs via primary amines on the surface of CSH2 as described in the manufacturers literature and therefore is (approximately) randomly oriented.
In detail, the c-terminal SH2 domain of p85alpha was prepared as previously described by Siegal et al. in J. Mol. Biol. 276(1998), 461-478. 11 mg of this domain CSH2 in a buffer consisting of 25 mM HEPES pH 7.5 and 100 mM NaCl was incubated with 1 ml of Actigel ALD (Sterogene, Carlsbad, Calif., USA) according to the manufacturers protocol. This amount corresponds to a 1 mM solution concentration. Unbound sites on the gel were blocked using d11-Tris (Cambridge Isotopes, Andover, Mass., USA). The control resin was derivatized exclusively with d11-Tris.
The potential ligands were dissolved in 99% D2O with d11-Tris.
In all cases, the control and experimental target containing resins were washed three times with the same mixture of test substances.
All NMR spectra were recorded on a Bruker (Bruker, Germany) DMX 600 spectrometer. Spectra typically consisted of 16 to 64 transients of 2 k complex points, were apodized using a sin^2 function and automatically baseline corrected using the supplied XWINNMR software provided by the manufacturer, Bruker, and methods described in the manufacturers literature. Difference spectra were also calculated using XWINNMR

SH2 domain (CSH2) = SH2 domain (CSH2) (Bos taurus, UniProt P23727); settings: mimic of the natural ligand; cited from earlier work
Chain of SH2 domain (CSH2) (P23727 624-718 limits assumed): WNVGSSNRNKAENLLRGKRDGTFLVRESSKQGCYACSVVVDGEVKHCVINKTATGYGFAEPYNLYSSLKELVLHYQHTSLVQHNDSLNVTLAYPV

T1 sequence (P23727 624-718 limits assumed): as above

| Compound | binding to immobilized oligonucleotide (peaks in the difference spectrum) [1] | binding to immobilized CSH2 (diminution of peaks / peaks in the difference spectrum) [2] | also measured |
| --- | --- | --- | --- |
| N=C(N)NCCC[C@H](N)C(=O)O [arginine] | do not bind | do not bind |  |
| NCC(=O)O [glycine] |  | do not bind |  |
| c1c[nH]cn1 [imidazole, Imidazole] | do not bind |  |  |
| CSCC[C@H](N)C(=O)O [methionine] |  |  | binding to immobilized CSH2 (diminution of peaks / peaks in the difference spectrum) ([2]; listed as M): small residual peaks; also recorded: Weak binding |
| N[C@@H](Cc1ccc(OP(=O)(O)O)cc1)C(=O)O [phosphotyrosine] | do not bind | only peaks derived from phosphotyrosine | Kd (SH2 domain (CSH2)): ~600 µM; binding to immobilized CSH2 (diminution of peaks / peaks in the difference spectrum) ([2]; listed as pY): clear diminution of the peaks; also recorded: relatively tight binding |
| NCCCNCCCCNCCCN [spermine] | Only peaks derived from spermine; also recorded: can be detected; also recorded: only spermine peaks remain |  |  |
